Reference: patent US20240398772A1, “OXASPIRO DERIVATIVE, AND PREPARATION METHOD THEREFOR AND USE THEREOF” (SHUJING BIOPHARMA CO., LTD, priority 2021, published 2024)

How the values were obtained:
[1] = biological target: T1, MOR (Homo sapiens, UniProt P35372); experiment: Agonist test on MOR, cAMP level (CHO-K1/OP3 cells, cAMP assay kit); format: cell-based; details: for EC50: forskolin-stimulated cAMP, read-out: EC50 agonizing MOR receptor to affect cAMP level; for Emax: maximal effect of DAMGO is 100%, read-out: Emax agonizing MOR receptor to affect cAMP level
T1 construct: expressed in transfected cells; host or cells: CHO-K1/OP3 (name from the earlier reading)
T1 sequence (P35372 whole entry): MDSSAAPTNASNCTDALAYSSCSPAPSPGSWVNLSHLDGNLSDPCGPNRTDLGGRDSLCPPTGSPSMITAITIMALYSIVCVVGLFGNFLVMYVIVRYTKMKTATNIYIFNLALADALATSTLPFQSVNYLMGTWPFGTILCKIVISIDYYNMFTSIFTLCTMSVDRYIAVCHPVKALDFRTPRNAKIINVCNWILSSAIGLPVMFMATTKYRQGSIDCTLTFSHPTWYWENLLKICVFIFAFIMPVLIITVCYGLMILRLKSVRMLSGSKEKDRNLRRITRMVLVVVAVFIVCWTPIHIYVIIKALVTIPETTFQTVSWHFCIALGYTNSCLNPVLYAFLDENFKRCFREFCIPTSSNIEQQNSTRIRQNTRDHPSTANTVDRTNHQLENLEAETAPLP
Description: 5×stimulation buffer was diluted to 1× with ddH2O, an appropriate amount of 500 mM IBMX (generally, the IBMX stock solution was prepared to be 500 mM, namely 1000×) was added to enable the final concentration of the IBMX to be 0.5 mM, and the mixture was mixed well for later use (after the IBMX was added, that precipitation occurred was normal, and the precipitate was dissolved by well mixing). It must be prepared right before use.
1.3.1.2 IBMX was dissolved with DMSO to prepare a 500 mM stock solution, which was aliquoted into 20 μL/tube and cryopreserved at −80° C. to avoid repetition of freezing and thawing.
1.3.1.3 Forskolin was dissolved with DMSO to prepare a 10 mM stock solution, which was aliquoted into 20 μL/tube and cryopreserved at −20° C. for later use.
The CAMP standard substance in the kit returned to room temperature, and an equivalent amount of the experimental buffer was added according to the volume marked on the bottle label. The mixture was vortexed for mixing, aliquoted according to 50 μL/tube, and cryopreserved at −20° C. for later use.
5 mL ddH2O was added to a bottle of cAMP-d2 and a bottle of anti-cAMP-cryptate lyophilized powder, respectively, and the mixture was mixed well by gently turning the mixture upside down, aliquoted according to 125, 62.5, and 30 μL, and the like, and cryopreserved in the dark at −80° C.
1.3.2.1 Positive compound DAMGO and the test compound were serially diluted 4-fold to obtain 10 concentrations with Bravo using experimental buffer in a compound plate (Greiner-781280) at a starting concentration of 2 μM (from DMSO stock solution diluted with experimental buffer) and 20 μM (from DMSO stock solution diluted with experimental buffer), respectively.
1.3.2.2 Cells cryopreserved were thawed in a water bath at 37° C., the cell suspension was added to a centrifuge tube containing 10 mL of HBSS buffer, and the mixture was centrifuged at 750 rpm for 5 min. The supernatant was discarded, the pellet was resuspended in an appropriate amount of experimental buffer, and 20 μL of the pellet was counted using a cell counter. An appropriate amount of the cell suspension was diluted to 0.4×10^6 cells/mL, and 5 μL of the cell suspension was added to each well of a cell plate (the cell density was 2000 cells/well) and centrifuged at 1000 rpm for 1 min. 5 μL of the diluted compound was transferred to a cell plate (PerkinElmer-6008280) with Bravo, 5 μL of 2 μM DAMGO (the final concentration was 1 μM) was transferred to positive control wells, and an equal volume of experimental buffer was transferred to negative control wells, and the cell plate was centrifuged at 1000 rpm for 1 min. The cell plate was sealed and incubated at room temperature for 15 min. Forskolin was diluted to 0.2 mM with DMSO, 25.1 nL of which was transferred to a cell plate with Tecan-D300e, and the plate was centrifuged at 1000 rpm for 1 min, sealed, and incubated at room temperature for 45 min.
The final concentration of the initial point was 712 nM.
1.3.2.4 Preparation of detection reagent: an appropriate amount of a cAMP-d2 stock solution and an anti-cAMP-cryptate stock solution was diluted with a lysis buffer according to the ratio of 1:20, the two solutions were then mixed well by turning the solutions upside down according to the ratio of 1:1, and vortexing was prohibited. 10 μL of the prepared detection reagent was added to a cell plate and centrifuged at 1000 rpm for 1 min. The cell plate was incubated at room temperature for 1 h in the dark. After the cell plate was centrifuged at 1000 rpm for 1 min, the plate was read using Envision. Excitation light at 340 nm, emission light at 620 nm and 665 nm.
The formula for calculating the compound activation rate in the agonist test: […]

[2] = test system: pain threshold of a mouse; experiment: Mouse thermal radiation tail-flick method; format: in vivo, ICR mice; details: for Maximum analgesic percentage (% MPE): ICR mice, intragastric 10 mg/kg, Mean ± SEM, n = 9-10
Description: • Intragastric administration at a dose of 10 mg/kg;
ICR mice (normal grade, weighed 25-35 g, purchased from Shanghai Slac Laboratory Animal Co., Ltd.) were first mounted in a special plastic cylinder, their tails were exposed and allowed to droop naturally, and the measurements were made after the animals were calm. The radiation heat source could be an 8.75 mm projection lamp (32 W, adjustable). A light beam with the diameter of about 4 mm was emitted after being focused by a lens, which irradiated the skin at the junction of the middle third and the lower third of the tail (the light source and the skin at the tail must be closely attached); an electronic timer connected with the light source in parallel was used to synchronously record the irradiation duration, that is, when the irradiation started, a stopwatch was automatically started at the same time. When the tail of the animal obviously evaded, the timing was automatically stopped. The measured time interval was the tail flick latency. Mice with tail flick latency of 2-6 seconds were screened to participate in a grouping administration experiment. […] After a dose of a drug was administered to the mice, the pain threshold of the mice was measured at different times.
After a dose of a drug was administered to the mice, the pain threshold of the mice was measured at 0.5 h, 1 h, 2 h, and 3 h (effect view of the analgesic effect is shown in FIG. 1). The formula for calculating the maximum analgesic percentage (% MPE) after administration was as follows: % MPE=(post-administration pain threshold−pre-administration pain threshold)/(15−pre-administration pain threshold)×100%.

Fc1ccc(C2(CCNCc3cccc(Cl)c3F)CCOC3(CCOCC3)C2)nc1 (stereo not shown) [Compound 14, N-(3-chloro-2-fluorobenzyl)-2-(4-(5-fluoropyridin-2-yl)-1,9-dioxaspiro[5.5]undecan-4-yl)ethan-1-amine]
EC50 [1]: 24.2 nM
Emax [1]: 88.1%

Fc1ccc(C2(CCN[C@H]3CCc4c(Br)cccc43)CCOC3(CCOCC3)C2)nc1 (stereo partly drawn) [Compound 7-1, (1S)-4-bromo-N-(2-(4-(5-fluoropyridin-2-yl)-1,9-dioxaspiro[5.5]undecan-4-yl)ethyl)-2,3-dihydro-1H-inden-1-amine]
EC50 [1]: 1.69 nM
Emax [1]: 116%

Fc1ccc(C2(CCN[C@H]3CCc4c(F)cccc43)CCOC3(CCOCC3)C2)nc1 (stereo partly drawn) [Compound 2-1, (1S)-4-fluoro-N-(2-(4-(5-fluoropyridin-2-yl)-1,9-dioxaspiro[5.5]undecan-4-yl)ethyl)-2,3-dihydro-1H-inden-1-amine]
EC50 [1]: 23.5 nM
Emax [1]: 101%

Fc1ccc(C2(CCNC3Cc4cccc(Cl)c4C3)CCOC3(CCOCC3)C2)nc1 (stereo not shown) [Compound 17, 4-chloro-N-(2-(4-(5-fluoropyridin-2-yl)-1,9-dioxaspiro[5.5]undecan-4-yl)ethyl)-2,3-dihydro-1H-inden-2-amine]
EC50 [1]: 2.14 nM
Emax [1]: 93.8%

Fc1ccc(C2(CCNCc3cccc(Cl)c3)CCOC3(CCOCC3)C2)nc1 (stereo not shown) [Compound 11, N-(3-chlorobenzyl)-2-(4-(5-fluoropyridin-2-yl)-1,9-dioxaspiro[5.5]undecan-4-yl)ethan-1-amine]
EC50 [1]: 7.75 nM
Emax [1]: 100%

Cc1cccc2c1CC[C@@H]2NCCC1(c2ccc(F)cn2)CCOC2(CCOCC2)C1 (stereo partly drawn) [Compound 6-1, (1S)-N-(2-(4-(5-fluoropyridin-2-yl)-1,9-dioxaspiro[5.5]undecan-4-yl)ethyl)-4-methyl-2,3-dihydro-1H-inden-1-amine]
EC50 [1]: 1.56 nM
Emax [1]: 118%

Fc1ccc(C2(CCN[C@H]3CCc4c(Cl)cccc43)CCOC3(CCOCC3)C2)nc1 (stereo partly drawn) [Compound 5-1, (1S)-4-chloro-N-(2-(4-(5-fluoropyridin-2-yl)-1,9-dioxaspiro[5.5]undecan-4-yl)ethyl)-2,3-dihydro-1H-inden-1-amine]
EC50 [1]: 1.33 nM
Emax [1]: 111%

Fc1ccc(C2(CCN[C@H]3CCc4ccc(F)cc43)CCOC3(CCOCC3)C2)nc1 (stereo partly drawn) [Compound 1-1, (1S)-6-fluoro-N-(2-(4-(5-fluoropyridin-2-yl)-1,9-dioxaspiro[5.5]undecan-4-yl)ethyl)-2,3-dihydro-1H-inden-1-amine]
EC50 [1]: 0.44 nM
Emax [1]: 103%

Fc1ccc([C@]2(CCN[C@H]3Cc4cccc(Br)c4C3)CCOC3(CCOCC3)C2)nc1 [Compound 10-1-1, (S)-4-bromo-N-(2-((R)-4-(5-fluoropyridin-2-yl)-1,9-dioxaspiro[5.5]undecan-4-yl)ethyl)-2,3-dihydro-1H-inden-2-amine]
EC50 [1]: 0.8 nM
Emax [1]: 104%

Fc1ccc(C2(CCNC3CCc4ccc(Cl)cc43)CCOC3(CCOCC3)C2)nc1 (stereo not shown) [Compound 4, 6-chloro-N-(2-(4-(5-fluoropyridin-2-yl)-1,9-dioxaspiro[5.5]undecan-4-yl)ethyl)-2,3-dihydro-1H-inden-1-amine]
EC50 [1]: 2.19 nM
Emax [1]: 103%

Fc1ccc([C@]2(CCN[C@H]3Cc4cccc(Cl)c4C3)CCOC3(CCOCC3)C2)nc1 [Compound 17-1-1, (S)-4-chloro-N-(2-((R)-4-(5-fluoropyridin-2-yl)-1,9-dioxaspiro[5.5]undecan-4-yl)ethyl)-2,3-dihydro-1H-inden-2-amine]
EC50 [1]: 0.64 nM
Emax [1]: 102%

Clc1cccc2c1CCC2NCCC1(c2ccccn2)CCOC2(CCOCC2)C1 (stereo not shown) [Compound 16, 4-chloro-N-(2-(4-(pyridin-2-yl)-1,9-dioxaspiro[5.5]undecan-4-yl)ethyl)-2,3-dihydro-1H-inden-1-amine]
EC50 [1]: 2.4 nM
Emax [1]: 102%

Fc1ccc(C2(CCNCc3cccc(Cl)c3Cl)CCOC3(CCOCC3)C2)nc1 (stereo not shown) [Compound 13, N-(2,3-dichlorobenzyl)-2-(4-(5-fluoropyridin-2-yl)-1,9-dioxaspiro[5.5]undecan-4-yl)ethan-1-amine]
EC50 [1]: 17.3 nM
Emax [1]: 78.9%

Cc1c(Cl)cccc1CNCC[C@@]1(c2ccc(F)cn2)CCOC2(CCOCC2)C1 [Compound 12-1, (R)—N-(3-chloro-2-methylbenzyl)-2-(4-(5-fluoropyridin-2-yl)-1,9-dioxaspiro[5.5]undecan-4-yl)ethan-1-amine]
EC50 [1]: 1.29 nM
Emax [1]: 93.8%
Maximum analgesic percentage (% MPE) ([2]; 0.5 h after administration): 99.48 ± 0.52 %
Maximum analgesic percentage (% MPE) ([2]; 1 h after administration): 86.20 ± 9.32 %
Maximum analgesic percentage (% MPE) ([2]; 2 h after administration): 89.98 ± 10.02 %
Maximum analgesic percentage (% MPE) ([2]; 3 h after administration): 78.89 ± 10.05 %
Maintenance of the analgesic effect compared with oxycodone ([2]; mouse tail flick, 0.5-3 h after administration): maintained for a longer period of time
Drug effect compared with oxycodone ([2]; mouse tail flick, same dose (10 mg/kg intragastric)): better drug effect than oxycodone

COc1ccc2c3c1O[C@H]1C(=O)CC[C@@]4(O)[C@@H](C2)N(C)CC[C@]314 [Oxycodone, reference compound]
Emax [1]: 95.2%
Maximum analgesic percentage (% MPE) ([2]; 0.5 h after administration): 37.87 ± 12.44%
Maximum analgesic percentage (% MPE) ([2]; 2 h after administration): 3.63 ± 8.14%
Maximum analgesic percentage (% MPE) ([2]; 3 h after administration): −0.23 ± 6.48%

Fc1ccc(C2(CCN[C@H]3CCc4ccccc43)CCOC3(CCOCC3)C2)nc1 (stereo partly drawn) [Compound 3-1, (1S)-N-(2-(-4-(5-fluoropyridin-2-yl)-1,9-dioxaspiro[5.5]undecan-4-yl)ethyl)-2,3-dihydro-1H-inden-1-amine]
EC50 [1]: 0.79 nM
Emax [1]: 99.9%
